In this assay the target is T1, SET7/9 (Homo sapiens, UniProt Q8WTS6).
T1 sequence (Q8WTS6 1-366): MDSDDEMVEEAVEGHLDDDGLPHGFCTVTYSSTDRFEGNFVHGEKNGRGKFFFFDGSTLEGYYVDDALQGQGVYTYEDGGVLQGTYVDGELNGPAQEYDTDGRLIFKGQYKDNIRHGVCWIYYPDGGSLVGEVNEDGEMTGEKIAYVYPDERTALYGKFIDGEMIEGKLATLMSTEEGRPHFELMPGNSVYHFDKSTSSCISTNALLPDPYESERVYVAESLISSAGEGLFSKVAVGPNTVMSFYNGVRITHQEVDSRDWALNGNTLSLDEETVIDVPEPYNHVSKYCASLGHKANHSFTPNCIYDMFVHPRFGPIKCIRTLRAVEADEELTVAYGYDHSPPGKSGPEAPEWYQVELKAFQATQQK
Put plainly: fluorescence polarization, displacement of SAM-binding site probe. Also noted: gene SETD7; SET7/9 (human recombinant) assay enzyme. On the technique in general: Fluorescence polarisation rises when a labelled molecule tumbles more slowly, as on binding a larger partner.

The structures appear in SMILES notation.

Turning to `Nc1ncnc2c1ncn2[C@@H]1O[C@H](C[C@@H](N)CC[C@H](N)C(=O)O)[C@@H](O)[C@H]1O` [Sine, 5’-deoxy-5’-(1,4-diamino-4-carboxybutyl)adenosine], the IC50 (usually the concentration that inhibits the measured activity by half) was 6.17 µM.
